From US8653104B2, “PTEN inhibitor or Maxi-K channels opener” (Otsuka Pharmaceuticals Co., Ltd., priority 2003, dated 2014)

How the values were obtained:
PTEN = assay: Suppression of TNF-α-stimulated increase in PTEN phosphorylation level, Western blot in SK-N-SH cells; type: cell-based, human; details: cilostazol 1, 10 and 100 μM given 3 hours before TNF-α (50 ng/ml, one hour)
Method: (§1) Cell cultures: SK-N-SH (KCLB 30011, human brain neuroblastoma) cells were cultured in Eagle's minimum essential medium (MEM) with 2 mM L-glutamine and 1.0 mM sodium pyruvate supplemented with 10% heat-inactivated fetal bovine serum. Cells were grown to confluence at 37° C. in 5% CO2 and used for experiments at no greater than passage 20.
Preparation of TNF-α solution: TNF-α (Upstate Biotechnology, Inc., Lake Placid, N.Y.) was dissolved in the phosphate buffered saline as a 10 μg/ml stock solution.
Western blot analysis: The confluent cells received MEM medium with 1% FBS plus cilostazol 3 hours prior to stimulation with TNF-α and then were exposed to TNF-α for one hour.
The cells were lysed in lysis buffer containing 50 mM Tris-Cl (pH 8.0), 150 mM NaCl, 0.02% sodium azide, 100 μg/ml phenylmethylsulfonyl fluoride, 1 μg/ml aprotinin and 1% Triton X-100. […] The signals of the bands were quantified using a GS-710 Calibrated imaging Densitomerter (Bio-Rad Laboratories, Hercules, Calif.). The results were expressed as a relative density. […]
Statistical analysis: The results are expressed as means±SEM. Statistical differences between groups were determined by Student's t-test. p<0.05 was considered to be significant.

Maxi-K channels = biological target: T1, Maxi-K channels (Homo sapiens, UniProt Q12791); assay: Whole-cell K+ current recording (patch clamp) in SK-N-SH cells; type: cell-based
T1 construct: endogenous in cells; host or cells: SK-N-SH (KCLB 30011) human neuroblastoma cells
Method: as §1
Recording of the whole-cell K^+ current: The experiments were performed in a small bath (0.5 ml) mounted on the stage of an inverted microscope (Nikon model TE300, Tokyo, Japan) perfused continuously at a flow rate of 1 ml/min. Using the whole-cell configuration of the patch clamp technique, the K^+ currents were recorded at room temperature (20˜22° C.) with an Axopatch-200B patch clamp amplifier (Axon Instruments, Foster City, Calif.). Currents were sampled at 1 to 10 kHz after anti-alias filtering at 0.5 to 5 kHz. Data acquisition and command potentials were controlled by pClamp 6.0.3 software (Axon Instruments, Foster City, Calif.). To ensure the voltage clamp quality, electrode resistance was kept below 3 MΩ. Junction potentials were zeroed with the electrode in the standard bath solution. Gigaohm seal formation was achieved by suction and, after establishing the whole cell configuration, the capacitive transients elicited by symmetrical 10 mV voltage clamp steps from −80 mV were recorded at 50 kHz for calculation of cell capacitance. The normal bath solution for the whole-cell recordings was: NaCl 130 mM, KCl 5 mM, MgCl2 1.2 mM, CaCl2 1.8 mM, HEPES 10 mM, glucose 5.2 mM and the pH was adjusted to 7.4 with NaOH. Pipettes were filled with KCl 140 mM, MgCl2 0.5 mM, CaCl2 0.1 mM, ethylenebis(oxonitrilo) tetra-acetic acid (EGTA) 0.09 mM, HEPES 10 mM, glucose 10 mM and the pH was adjusted to 7.4 with KOH.
After establishment of whole-cell recordings and collecting control recordings for approximately 5 minutes until the current elicited by depolarization stabilized, cilostazol was applied to the bath. In the experiments, using glibenclamide or iberiotoxin, cilostazol was applied to the bath about 20 minutes after administering glibenclamide or iberiotoxin.

T1 sequence (Q12791 whole entry): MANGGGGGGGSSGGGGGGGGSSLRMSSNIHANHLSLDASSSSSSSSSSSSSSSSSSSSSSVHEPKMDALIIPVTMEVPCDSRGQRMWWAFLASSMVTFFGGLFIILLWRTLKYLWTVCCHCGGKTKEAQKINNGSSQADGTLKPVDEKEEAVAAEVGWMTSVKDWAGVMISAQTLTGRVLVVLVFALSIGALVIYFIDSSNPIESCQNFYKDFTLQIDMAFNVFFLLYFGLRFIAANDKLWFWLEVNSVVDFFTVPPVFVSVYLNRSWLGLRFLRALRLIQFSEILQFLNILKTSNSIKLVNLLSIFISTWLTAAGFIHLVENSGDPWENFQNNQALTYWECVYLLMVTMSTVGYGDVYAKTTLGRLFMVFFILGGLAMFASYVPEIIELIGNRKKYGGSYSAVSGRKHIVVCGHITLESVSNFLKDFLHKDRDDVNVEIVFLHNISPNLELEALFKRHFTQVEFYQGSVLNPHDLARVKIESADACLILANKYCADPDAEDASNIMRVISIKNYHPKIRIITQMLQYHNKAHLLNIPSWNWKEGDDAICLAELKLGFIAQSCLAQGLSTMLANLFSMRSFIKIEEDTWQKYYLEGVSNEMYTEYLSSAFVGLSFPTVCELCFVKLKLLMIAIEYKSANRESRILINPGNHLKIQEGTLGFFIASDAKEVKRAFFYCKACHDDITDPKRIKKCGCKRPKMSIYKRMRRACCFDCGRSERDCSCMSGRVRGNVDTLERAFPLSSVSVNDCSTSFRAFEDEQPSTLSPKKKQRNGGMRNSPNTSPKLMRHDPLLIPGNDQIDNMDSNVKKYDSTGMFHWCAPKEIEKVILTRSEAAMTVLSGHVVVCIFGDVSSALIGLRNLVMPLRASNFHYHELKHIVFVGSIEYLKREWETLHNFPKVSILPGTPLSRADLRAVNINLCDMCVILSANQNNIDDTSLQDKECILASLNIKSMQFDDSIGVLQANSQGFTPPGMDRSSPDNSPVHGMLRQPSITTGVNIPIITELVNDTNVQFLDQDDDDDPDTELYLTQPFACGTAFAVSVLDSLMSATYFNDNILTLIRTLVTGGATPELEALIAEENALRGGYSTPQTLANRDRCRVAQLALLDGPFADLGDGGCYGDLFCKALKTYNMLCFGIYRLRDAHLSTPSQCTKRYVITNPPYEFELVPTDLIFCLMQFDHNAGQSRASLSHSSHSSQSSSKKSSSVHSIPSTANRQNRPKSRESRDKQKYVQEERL

O=C1CCc2cc(OCCCCc3nnnn3C3CCCCC3)ccc2N1 [cilostazol, 6-[4-(1-cyclohexyl-1H-tetrazol-5-yl)butoxy]-3,4-dihydro-carbostyril]
TNF-α-stimulated increased PTEN phosphorylation level (PTEN): concentration-dependently suppressed
Maxi-K channel-mediated currents in co-existence of glibenclamide (Maxi-K channels; cilostazol applied about 20 minutes after glibenclamide): increase in maxi-K channel-medicated currents was given
whole-cell calcium activated K+ current (Maxi-K channels; cilostazol applied to the bath alone): significantly increased
K+ current when added together with iberiotoxin (Maxi-K channels; cilostazol together with iberiotoxin, compared with iberiotoxin alone): increase of the current was rather less than iberiotoxin alone

COc1ccc(Cl)cc1C(=O)NCCc1ccc(S(=O)(=O)NC(=O)NC2CCCCC2)cc1 [glibenclamide, 5-chloro-N-[2-[4-[[[(cyclohexyl-amino)carbonyl]amino]sulfonyl]phenyl]ethyl]-2-methoxy-benzamide]
block of the cilostazol-increased K+ current (Maxi-K channels; glibenclamide 10 μM added to the bath): not
Maxi-K channel-mediated currents, blocker alone (Maxi-K channels; glibenclamide alone): could not increase

iberiotoxin
block of the cilostazol-increased K+ current (Maxi-K channels; iberiotoxin 100 nM added to the bath): reversibly blocked
